Source: ChEMBL document CHEMBL1122122, “Drug latentiation by gamma-glutamyl transpeptidase” (J Med Chem, 1982)
Residues, ends and D or L forms follow the SMILES beside them.

Experiment: Compound evaluated for drug latentiation activity by determining relative rate of cleavage by gamma-glutamyl transpeptidase
Assay type: functional
`NC(CCC(=O)Nc1ccc(O)cc1)C(=O)O` (stereo not given) gave a Relative activity of 98.
In the case of `CCC(NC(=O)CCC(N)C(=O)O)C(=O)O` (stereo not given), the Relative activity is reported as 95.
Work on `NC(CCC(=O)NCCCC(=O)O)C(=O)O` (stereo not given) yielded a Relative activity of 9.
Molecule `NC(CCC(=O)N1CSCC1C(=O)O)C(=O)O` (stereo not given) has a Relative activity of 5.
Molecule `NC(=O)CC[C@H](N)C(=O)NCC(=O)O` (H-Gln-Gly-OH) has a Relative activity of 70.
`NC(CCC(=O)NC1(C(=O)O)CCCC1)C(=O)O` (stereo not given) gave a Relative activity of 19.
`NC(CCC(=O)N1CCCC1C(=O)O)C(=O)O` (stereo not given) gave a Relative activity of 4.
In the case of `CSC[C@H](NC(=O)CC[C@H](N)C(=O)O)C(=O)NCC(=O)O`, the Relative activity is reported as 100.
Molecule `NC(CCC(=O)Nc1ccccc1O)C(=O)O` (stereo not given) has a Relative activity of 95.
Molecule `NC(CCC(=O)Nc1cccc(O)c1)C(=O)O` (stereo not given) has a Relative activity of 96.
